Measurements reported in US20250270217A1, “IMIDAZ0[1,2-A]PYRIMIDINE-5(1 H)-ONES HAVING A COVALENT WARHEAD AT THE 3-POSITION AS WRN INHIBITORS” (Incyte Corporation, priority 2023, published 2025).

Assays:
[1] = target: T1, WRN (Homo sapiens, UniProt Q14191); test: WRN ATPase activity assay (ADP-Glo); type: biochemical; conditions: 1-hr pre-incubation with enzyme; 100 μM ATP, 25 nM forked dsDNA, 1 nM WRN; geometric mean of at least 2 replicates
T1 construct: A His-tagged construct of WRN (AA S2-S1235) was produced and used for the ATPase assay; His; made in house; host or cells: Sf9 insect cells (baculovirus)
T1 sequence (Q14191 2-1235): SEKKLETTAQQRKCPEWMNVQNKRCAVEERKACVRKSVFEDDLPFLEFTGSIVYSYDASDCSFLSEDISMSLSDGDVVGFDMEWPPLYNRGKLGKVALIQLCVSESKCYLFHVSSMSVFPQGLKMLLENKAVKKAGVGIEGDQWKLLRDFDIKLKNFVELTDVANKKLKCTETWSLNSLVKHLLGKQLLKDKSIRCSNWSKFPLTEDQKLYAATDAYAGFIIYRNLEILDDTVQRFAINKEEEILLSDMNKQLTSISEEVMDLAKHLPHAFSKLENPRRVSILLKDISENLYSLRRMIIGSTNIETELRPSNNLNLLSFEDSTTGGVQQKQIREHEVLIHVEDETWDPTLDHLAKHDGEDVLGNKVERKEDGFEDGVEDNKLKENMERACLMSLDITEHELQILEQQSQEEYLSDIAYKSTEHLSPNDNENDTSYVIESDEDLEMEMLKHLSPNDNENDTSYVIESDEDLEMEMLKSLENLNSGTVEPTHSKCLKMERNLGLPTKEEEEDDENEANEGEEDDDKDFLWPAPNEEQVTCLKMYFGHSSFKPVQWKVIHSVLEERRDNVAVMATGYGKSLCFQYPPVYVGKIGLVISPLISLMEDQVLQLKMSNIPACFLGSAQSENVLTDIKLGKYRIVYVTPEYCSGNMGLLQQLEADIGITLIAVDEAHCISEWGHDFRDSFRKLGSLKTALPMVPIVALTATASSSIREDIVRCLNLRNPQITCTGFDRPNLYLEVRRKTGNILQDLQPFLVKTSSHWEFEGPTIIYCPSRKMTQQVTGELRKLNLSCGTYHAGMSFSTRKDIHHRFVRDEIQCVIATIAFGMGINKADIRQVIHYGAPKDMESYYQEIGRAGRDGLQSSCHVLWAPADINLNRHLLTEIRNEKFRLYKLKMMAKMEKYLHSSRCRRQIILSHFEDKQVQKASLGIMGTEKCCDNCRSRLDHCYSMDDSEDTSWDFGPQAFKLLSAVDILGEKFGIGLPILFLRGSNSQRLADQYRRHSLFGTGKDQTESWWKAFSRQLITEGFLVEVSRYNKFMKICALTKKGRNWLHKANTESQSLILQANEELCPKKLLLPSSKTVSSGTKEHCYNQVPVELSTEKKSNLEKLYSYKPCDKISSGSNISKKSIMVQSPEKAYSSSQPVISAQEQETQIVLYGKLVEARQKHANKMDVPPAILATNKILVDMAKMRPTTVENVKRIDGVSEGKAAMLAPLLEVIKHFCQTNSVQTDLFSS
Protocol: Compounds of the Examples were tested for WRN ATPase activity. WRN ATPase activity catalyzes ATP hydrolysis to produce ADP and phosphate. DNA encoding the target protein, 6×HIS-TEV-WRN-517-945, was produced, cloned and transfected as detailed in Example D. The amount of ADP produced was measured using ADP-Glo™ Kinase Assay kit from Promega Corporation in a Greiner white regular volume 384 wells assay plate (Greiner #781075). Data was normalized to a standard curve generated using various ADP concentrations and the corresponding luminescent signal intensities at each concentration. The assay conditions were optimized for enzyme concentration (WRN), substrate concentrations (ATP & dsDNA), and the linearity of the ATPase reaction, in the following assay buffer: 50 mM Tris-HCl, pH-7.5, 2 mM MgCl2, 50 mM NaCl, 1 mM EGTA, 0.01% P-20, 0.05% BSA, and 2 mM DTT prepared with nuclease free water.
A serial dilution (1:3 scheme) of the compounds were prepared in neat DMSO, with 100 nL of the compounds dispensed in the 384 wells assay plate. An 1-hr pre-incubation of the compounds with enzyme was included. A His-tagged construct of WRN (AA S2-S1235) was produced and used for the ATPase assay. Maximum inhibition control wells were set up with the addition of only assay buffer, and no inhibition control wells were set up with neat DMSO without test compounds. The reaction was initiated by addition of 5 μL substrate mix (200 μM ultrapure ATP, and 50 nM dsDNA prepared in assay buffer) and incubated at 25° C. for 35 min. A forked dsDNA oligomer substrate was prepared by annealing equal amounts of oligo GPat-1 ([BHQ2][…]) and oligo GPat-2 ([…][TAM]) and was used as dsDNA substrate for WRN ATPase assay. A typical ATPase reaction consists of 25 nM forked dsDNA, 100 μM ATP, and 1 nM WRN prepared in assay buffer. The WRN ATPase reaction was stopped by the addition of 5 μL of ADP-Glo Reagent from ADP-Glo™ Kinase Assay kit and incubated for 40 min to deplete the unreacted ATP. Afterwards, 5 μL of Kinase Detection Reagent from the ADP-Glo™ Kinase Assay kit was added and incubated for 1 hr for the development of luminescence signal.
Luminesce signals were measured on BMG PHERAstar FSX using luminescence protocol. Data analysis was carried out using Genedata software following % of control normalization. Fitting parameters include dose response IC50, Hill slope (n), maximum inhibition (S∞), and minimum inhibition (S0). The reported IC50 values for compounds in this invention are the geometric means of at least 2 independent replicates.

[2] = target: T1, WRN; test: WRN Helicase activity assay (fluorescence DNA unwinding); type: biochemical; conditions: 1-hr pre-incubation with enzyme; 100 μM ATP, 25 nM forked dsDNA, 1 nM WRN; geometric mean of at least 2 replicates
Protocol: Compounds of the examples were tested for WRN helicase activity. DNA encoding the target protein, 6×HIS-TEV-WRN-517-945, was produced, cloned and transfected as detailed in Example D. To determine the inhibitory properties of the compounds, a 384 wells plate-based Helicase assay was set up to measure the extent of DNA unwinding (Helicase) activity of WRN. The WRN Helicase assay was designed to measure increase in fluorescence signal using a fluorescence based, donor-quencher paired forked dsDNA oligomer substrate (custom synthesis from Sigma-Aldrich) prepared by annealing equal amounts of oligo GPat-1 ([BHQ2][…]) and oligo GPat-2 ([…][TAM]). Continuous measurement of fluorescent signal was used to optimize the buffer conditions, concentration of enzyme (WRN), concentration of substrates (ATP & dsDNA), and the linearity of the Helicase reaction. All solutions were prepared in the following assay buffer: 50 mM Tris-HCl, pH-7.5, 2 mM MgCl2, 50 mM NaCl, 1 mM EGTA, 0.01% P-20, 0.05% BSA, and 2 mM DTT prepared with nuclease free water.
A serial dilution (1:3 scheme) of the compounds was prepared in neat DMSO and 100 nL of the compounds was dispensed in the Greiner black low volume (Greiner #784076) 384 wells assay plate. An 1-hr pre-incubation of the compounds with enzyme was included. A His-tagged construct of WRN (AA S2-S1235) was produced and used for the ATPase assay. Maximum inhibition control wells were set up with the addition of only assay buffer, and no inhibition control wells were set up with neat DMSO without test compounds. The reaction was initiated by addition of 5 μL substrate mix (200 μM ultrapure ATP, and 50 nM dsDNA prepared in assay buffer) and incubated at 25° C. for 35 min. A typical Helicase reaction consists of 25 nM forked dsDNA, 100 μM ATP, and 1 nM WRN prepared in assay buffer. The WRN Helicase reaction was quenched by the addition of 5 μL ‘STOP’ solution containing 100 mM EDTA (final EDTA concentration 33.33 mM) prepared in assay buffer. The plates were read on BMG PHERAstar FSX using 540/590 module to measure an increase of fluorescence. Data analysis was carried out using the Genedata software following % of control normalization. Fitting parameters include dose response IC50, Hill slope (n), maximum inhibition (S∞), and minimum inhibition (S0). The reported IC50 values for compounds in this invention are the geometric means of at least 2 independent replicates.

Compound: CCc1nc2n(CC(=O)Nc3ccc(C(F)(F)F)cc3)c(C)cn2c(=O)c1-c1ccccc1NC(=O)CCl [Example 7, 2-Chloro-N-(2-(7-ethyl-2-methyl-5-oxo-1-(2-oxo-2-((4-(trifluoromethyl)phenyl)amino)ethyl)-1,5-dihydroimidazo[1,2-a]pyrimidin-6-yl)phenyl)acetamide]
- IC50 [1]: < 100 nM
- IC50 [2]: < 100 nM

Compound: C=CC(=O)Nc1cc(C(=O)NC2(C)CC2)ccc1-c1c(CC)nc2n(CC(=O)Nc3ccc(C(F)(F)F)cc3)c(C)cn2c1=O [Example 10, 3-Acrylamido-4-(7-ethyl-2-methyl-5-oxo-1-(2-oxo-2-((4-(trifluoromethyl)phenyl)amino)ethyl)-1,5-dihydroimidazo[1,2-a]pyrimidin-6-yl)-N-(1-methylcyclopropyl)benzamide]
- IC50 [1]: < 100 nM
- IC50 [2]: < 100 nM

Compound: C=CC(=O)Nc1cc(C(=O)NC2CCOCC2)ccc1-c1c(CC)nc2n(CC(=O)Nc3ccc(C(F)(F)F)cc3)c(C)cn2c1=O [Example 13, 3-Acrylamido-4-(7-ethyl-2-methyl-5-oxo-1-(2-oxo-2-((4-(trifluoromethyl)phenyl)amino)ethyl)-1,5-dihydroimidazo[1,2-a]pyrimidin-6-yl)-N-(tetrahydro-2H-pyran-4-yl)benzamide]
- IC50 [1]: < 100 nM
- IC50 [2]: < 100 nM

Compound: C=CC(=O)Nc1ccccc1-c1c(CC)nc2n(CC(=O)Nc3ccc(F)cc3)ccn2c1=O [Example 17, N-(2-(7-ethyl-1-(2-((4-fluorophenyl)amino)-2-oxoethyl)-5-oxo-1,5-dihydroimidazo[1,2-a]pyrimidin-6-yl)phenyl)acrylamide]
- IC50 [1]: 100 to 500 nM
- IC50 [2]: 100 to 500 nM

Compound: C#CCNC(=O)c1ccc(-c2c(CC)nc3n(CC(=O)Nc4ccc(C(F)(F)F)cc4)c(C)cn3c2=O)c(NC(=O)C=C)c1 [Example 12, 3-Acrylamido-4-(7-ethyl-2-methyl-5-oxo-1-(2-oxo-2-((4-(trifluoromethyl)phenyl)amino)ethyl)-1,5-dihydroimidazo[1,2-a]pyrimidin-6-yl)-N-(prop-2-yn-1-yl)benzamide]
- IC50 [1]: < 100 nM
- IC50 [2]: < 100 nM

Compound: C=CC(=O)Nc1ccccc1-c1c(CC)nc2n(CC(=O)Nc3ccc(C(F)(F)F)cc3)c(C)c(C3CC3)n2c1=O [Example 14, N-(2-(3-Cyclopropyl-7-ethyl-2-methyl-5-oxo-1-(2-oxo-2-((4-(trifluoromethyl)phenyl)amino)ethyl)-1,5-dihydroimidazo[1,2-a]pyrimidin-6-yl)phenyl)acrylamide]
- IC50 [1]: < 100 nM
- IC50 [2]: < 100 nM

Compound: C=CC(=O)Nc1cc(C(=O)NC2CCC2)ccc1-c1c(CC)nc2n(CC(=O)Nc3ccc(C(F)(F)F)cc3)c(C)c(C)n2c1=O [Example 29, 3-Acrylamido-N-cyclobutyl-4-(7-ethyl-2,3-dimethyl-5-oxo-1-(2-oxo-2-((4-(trifluoromethyl)phenyl)amino)ethyl)-1,5-dihydroimidazo[1,2-a]pyrimidin-6-yl)benzamide]
- IC50 [1]: < 100 nM
- IC50 [2]: < 100 nM

Compound: C=CC(=O)Nc1c(Cl)cccc1-c1c(CC)nc2n(CC(=O)Nc3ccc(F)cc3)c(C)c(C)n2c1=O [Example 42, N-(2-chloro-6-(7-ethyl-1-(2-((4-fluorophenyl)amino)-2-oxoethyl)-2,3-dimethyl-5-oxo-1,5-dihydroimidazo[1,2-a]pyrimidin-6-yl)phenyl)acrylamide]
- IC50 [1]: < 100 nM
- IC50 [2]: < 100 nM

Compound: C=CC(=O)Nc1ccccc1-c1cn(CC(=O)Nc2ccc(C(F)(F)F)cc2)c2nc(CC)c(N3CCN(C(=O)c4ncccc4O)CC3)c(=O)n12 [Example 36, N-(2-(7-Ethyl-6-(4-(3-hydroxypicolinoyl)piperazin-1-yl)-5-oxo-1-(2-oxo-2-((4-(trifluoromethyl)phenyl)amino)ethyl)-1,5-dihydroimidazo[1,2-a]pyrimidin-3-yl)phenyl)acrylamide]
- IC50 [1]: < 100 nM
- IC50 [2]: < 100 nM
